Experimental findings from US20260125371A1, “METHOD FOR INHIBITING CLOSTRIDIOIDES DIFFICILE SPORE GERMINATION” (UNIVERSITY OF NOTRE DAME DU LAC, priority 2022, published 2026) are described below.

Converted amounts (≈) assume the structure as drawn. Read-outs that look alike come from different tables or passages of the source.

For test [1], the system named is S. aureus. Nature of the test: MIC against S. aureus strains. As to conditions: S. aureus ATCC 29213, 24 h; for MIC: Staphylococcus aureus, ATCC29213, 24 h, read-out: MIC (μg/mL) 24 h. The class given is cell-based.
Test [2] concerns C. difficile ATCC 43255. The test is described as follows: Determination of minimal-inhibitory concentrations (microdilution), C. difficile ATCC 43255. The class given is cell-based, Clostridioides difficile. The settings on record: for MIC: Clostridioides difficile. For orientation: Broth dilution looks for growth in wells or tubes with falling amounts of substance.
Setting [3] is: C. difficile ATCC 43255, 48-h incubation.
Setting [4] is: ATCC43255, 24 h, C. difficile ATCC 43255, 24 h, read-out: MIC (μg/mL) 24 h.
The mark [5] stands for this setting: ATCC43255, 48 h, C. difficile ATCC 43255, 48-h incubation, read-out: MIC (μg/mL) 48 h.

Consider `O=C(O)c1ccc(-c2nc(-c3ccc(OC4CCCC4)cc3)no2)cc1` [Compound 49, 4-(3-(4-(Cyclopentyloxy)phenyl)-1,2,4-oxadiazol-5-yl)benzoic acid], for which the MIC in test [1] and in test [2] (setting [4]) was more than 128 µg/mL each time. Moreover, the “MIC (μg/mL) 48 h” value in test [2] (setting [3]) was more than 128 µg/mL.

Take `FC(F)(F)c1ccc(Oc2ccc(-c3noc(-c4n[nH]cc4NC4CCCC4)n3)cc2)cc1` [Compound 38]: the “MIC (μg/mL) 24 h” value in test [1] was more than 128 µg/mL; in test [2] (C. difficile ATCC 43255, 24 h) it was more than 128 µg/mL. The “MIC (μg/mL) 48 h” value in test [2] (setting [3]) is more than 128 µg/mL.

As to `CCCCOc1ccc(-c2noc(-c3ccc(O)cc3)n2)cc1` [Compound 90, 4-(3-(4-Butoxyphenyl)-1,2,4-oxadiazol-5-yl)phenol], the MIC in test [1], in test [2] (setting [4]) and in test [2] (setting [5]) was more than 128 µg/mL throughout.

For the compound `CCOc1ccc(-c2noc(-c3ccc(O)cc3)n2)cc1` [Compound 86, 4-(3-(4-Ethoxyphenyl)-1,2,4-oxadiazol-5-yl)phenol], the MIC in test [1], in test [2] (setting [4]) and in test [2] (setting [5]) was more than 128 µg/mL in each case.

With `FC(F)(F)c1ccc(Oc2ccc(-c3noc(-c4c[nH]cn4)n3)cc2)cc1` [Compound 34], the “MIC (μg/mL) 24 h” value in test [1] was found to be 2 µg/mL (≈ 5.37 µM); in test [2] (C. difficile ATCC 43255, 24 h), 8 µg/mL (≈ 21.5 µM). The “MIC (μg/mL) 48 h” value in test [2] (setting [3]) amounted to 8 µg/mL (≈ 21.5 µM).
